Legend:
human GST-PIKFYVE = target: T1, human GST-PIKFYVE (Homo sapiens, UniProt Q9Y2I7); test: ADP-Glo kinase assay, enzyme inhibition activity against human PIKFYVE (Carna biosciences); type: biochemical; conditions: inhibitory activity at final compound concentration 10 nM; 1 hour at room temperature
T1 construct: GST; purchased Carna biosciences 11-118
Protocol: The enzyme inhibition activity values for the compounds according to Examples against human PIKFYVE were calculated using the ADP-Glo™ kinase assay service of Carna biosciences, Inc. The enzyme activity evaluation method provided by Carna biosciences Inc., is shown below.
Enzyme inhibition activity was evaluated by reacting the compounds according to Examples with human GST-PIKFYVE (11-118, Carna biosciences), which was purified using glutathione Sepharose chromatography. The reaction buffer used was composed of 50 mmol/L MOPS, 1 mmol/L DTT, and pH 7.2, and all reactions of the test distilled water were performed in the buffer.
Compounds were prepared as solutions in 100% DMSO as 100× stocks and adjusted to have a final sample concentration of 10 nM.
The substrate-enzyme reaction for PIKFYVE was performed by mixing 5 μL human GST-PIKFYVE, 5 μL compounds according to Examples, 5 μL enzyme substrate, and 5 μL purified ATP and reacting for 1 hour at room temperature. After the substrate-enzyme reaction, 20 μL ADP-Glo™ Reagent was added and reacted at room temperature for 40 minutes, then 40 μL Kinase Detection Reagent was added and reacted at room temperature for 40 minutes.
After completion of the reaction, the degree of enzyme activity inhibition was measured by luminescence. The fluorescence of the enzyme activity in the solvent control group […] was set to 100%, and the fluorescence of the enzyme activity in the solvent control group without compound treatment was set to 0%. The inhibitory activity of each compound according to Examples was calculated based on these values.

PIKFYVE = target: T2, PIKFYVE (Homo sapiens, UniProt Q9Y2I7); test: NanoBRET TE Intracellular Kinase Assay, interaction of PIKFYVE and compounds in HEK293 cells; type: cell-based; conditions: IC50 class from BRET; HEK293 cells expressing PIKFYVE-NanoLuc; 2 hours incubation
T2 construct: host or cells: HEK293 (ATCC, CRL-1573)
Protocol: To predict the efficacy of the compounds according to Example on PIKFYVE in humans, the interaction between PIKFYVE and the compounds was tested using the HEK293 cell line derived from human embryonic kidney (ATCC, CRL-1573) via NanoBRETT TE Intracellular Kinase Assay Service of Carna biosciences Inc., (Japan). The evaluation method provided by Carna biosciences Inc., was shown below and the NanoBRET™ TE Intracellular Kinase Assay, K-8 Kit (Promega, CS1810C88) was used.
The HEK-293 cells cultured in Opti-MEM™ I Reduced Serum Medium (Thermo Fisher, 11058-021) were transfected with Transfection Carrier DNA (Promega, E4881), PIKFYVE-NanoLuc Fusion Vector (Promega, CS1810C225), and FuGENE HD Transfection Reagent (Promega, E2311) to produce cells expressing genes combining PIKFYVE and NanoLuc, followed by culturing 100 μl (2×10^5 cells/ml) each in 96-well plates (Corning, 3917).
10× compounds according to Examples or Comparative Examples prepared by concentration in 1× NanoBRET™ tracer reagent and DMSO were reacted in 96-well plates and incubated for 2 hours in a 37° C., 5% CO2 incubator.
After the reaction was completed, 3× Complete NanoBRET™ Nano-Glo Substrate solution was added to each well, and the reaction was allowed to run for 2-3 minutes at room temperature before BRET was measured using a GloMax Discover Multimode Microplate Reader (Promega).

T1 sequence (Q9Y2I7 whole entry): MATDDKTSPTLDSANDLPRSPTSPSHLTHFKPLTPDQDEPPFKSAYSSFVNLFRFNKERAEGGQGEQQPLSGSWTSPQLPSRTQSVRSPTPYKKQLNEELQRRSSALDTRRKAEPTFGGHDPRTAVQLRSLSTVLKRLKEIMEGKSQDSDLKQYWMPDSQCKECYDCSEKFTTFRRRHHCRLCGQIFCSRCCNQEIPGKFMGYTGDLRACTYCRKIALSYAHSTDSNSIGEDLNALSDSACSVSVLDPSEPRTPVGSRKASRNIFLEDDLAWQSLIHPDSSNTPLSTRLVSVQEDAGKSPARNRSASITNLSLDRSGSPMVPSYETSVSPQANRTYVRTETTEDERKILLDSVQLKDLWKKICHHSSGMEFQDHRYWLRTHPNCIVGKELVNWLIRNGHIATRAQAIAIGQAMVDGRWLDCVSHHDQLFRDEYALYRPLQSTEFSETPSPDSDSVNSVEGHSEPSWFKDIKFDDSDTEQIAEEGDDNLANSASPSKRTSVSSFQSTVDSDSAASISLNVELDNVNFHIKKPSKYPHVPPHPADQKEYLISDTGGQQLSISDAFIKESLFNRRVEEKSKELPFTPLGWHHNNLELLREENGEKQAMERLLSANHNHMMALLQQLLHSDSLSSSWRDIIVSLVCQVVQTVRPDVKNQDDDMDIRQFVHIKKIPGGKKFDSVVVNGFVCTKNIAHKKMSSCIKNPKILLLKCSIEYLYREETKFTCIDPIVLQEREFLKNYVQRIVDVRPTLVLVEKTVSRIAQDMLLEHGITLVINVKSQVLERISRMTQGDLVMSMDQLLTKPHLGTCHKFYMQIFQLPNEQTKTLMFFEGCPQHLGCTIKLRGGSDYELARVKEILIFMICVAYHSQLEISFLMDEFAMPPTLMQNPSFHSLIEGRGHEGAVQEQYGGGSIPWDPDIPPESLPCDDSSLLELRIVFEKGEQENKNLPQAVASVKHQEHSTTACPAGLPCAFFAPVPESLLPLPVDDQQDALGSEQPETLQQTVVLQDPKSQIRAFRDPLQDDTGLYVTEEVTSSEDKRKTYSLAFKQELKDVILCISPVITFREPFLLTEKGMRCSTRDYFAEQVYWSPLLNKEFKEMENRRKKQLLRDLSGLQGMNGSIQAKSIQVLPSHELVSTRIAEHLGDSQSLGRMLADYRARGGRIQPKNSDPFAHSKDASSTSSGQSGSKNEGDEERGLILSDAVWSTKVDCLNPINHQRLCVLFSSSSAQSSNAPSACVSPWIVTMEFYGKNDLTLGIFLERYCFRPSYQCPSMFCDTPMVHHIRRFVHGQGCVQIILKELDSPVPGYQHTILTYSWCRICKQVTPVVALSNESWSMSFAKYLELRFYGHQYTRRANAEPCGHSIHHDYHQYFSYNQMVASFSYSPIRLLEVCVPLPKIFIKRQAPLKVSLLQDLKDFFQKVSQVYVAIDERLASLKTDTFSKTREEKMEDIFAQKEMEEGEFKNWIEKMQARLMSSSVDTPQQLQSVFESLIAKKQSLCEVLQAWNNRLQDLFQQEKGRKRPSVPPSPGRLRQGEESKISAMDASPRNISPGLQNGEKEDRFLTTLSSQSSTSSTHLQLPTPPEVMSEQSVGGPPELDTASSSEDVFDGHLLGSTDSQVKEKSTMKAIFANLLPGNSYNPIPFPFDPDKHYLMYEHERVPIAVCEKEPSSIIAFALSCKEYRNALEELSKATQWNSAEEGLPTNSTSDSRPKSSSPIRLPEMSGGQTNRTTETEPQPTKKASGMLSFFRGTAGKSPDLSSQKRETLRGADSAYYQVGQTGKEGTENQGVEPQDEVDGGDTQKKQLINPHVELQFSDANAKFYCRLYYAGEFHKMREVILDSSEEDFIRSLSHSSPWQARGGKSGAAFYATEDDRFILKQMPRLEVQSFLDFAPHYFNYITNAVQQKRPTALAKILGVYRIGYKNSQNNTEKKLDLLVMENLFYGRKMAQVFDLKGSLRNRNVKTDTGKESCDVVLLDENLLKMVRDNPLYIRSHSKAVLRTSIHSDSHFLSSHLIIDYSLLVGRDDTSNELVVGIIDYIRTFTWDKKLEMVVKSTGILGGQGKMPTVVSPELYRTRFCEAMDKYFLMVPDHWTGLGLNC
T2 sequence (Q9Y2I7 whole entry): as above

SMILES	ADP-Glo kinase assay (%, 10 nM) (human GST-PIKFYVE)	IC50 (PIKFYVE)
Cc1cccc(/C=N/Nc2nc(N3CCOC[C@@H]3C)nc3c2ncn3-c2cccnc2)c1 [Example 97, (S,E)-3-methyl-4-(6-(2-(3-methylbenzylidene)hydrazinyl)-9-(pyridin-3-yl)-9H-purin-2-yl)morpholine]	78.47%	10 to 20 nM
Cc1cccc(/C=N/Nc2nc(N3CCOCC3)nc3c2ncn3-c2cccc(O)c2)c1 [Example 131, (E)-3-(6-(2-(3-methylbenzylidene)hydrazinyl)-2-morpholino-9H-purin-9-yl)phenol]	91.40%	≤ 10 nM
Cc1cccc(/C=N/Nc2nc(N3CCOCC3)nc3c2ncn3CC(C)C)c1 [Example 17, (E)-4-(9-isobutyl-6-(2-(3-methylbenzylidene)hydrazinyl)-9H-purin-2-yl)morpholine]	69.26%	10 to 20 nM
Cc1cccc(/C=N/Nc2nc(N3CCOCC3)nc3c2ncn3CC(=O)c2ccc(F)cn2)c1 [Example 53, (E)-1-(5-fluoropyridin-2-yl)-2-(6-(2-(3-methylbenzylidene)hydrazinyl)-2-morpholino-9H-purin-9-yl)ethan-1-one]	70.90%	20 to 30 nM
Cc1cccc(/C=N/Nc2nc(N3CCOCC3)nc3c2ncn3CC(=O)c2cccc(C)c2)c1 [Example 41, (E)-2-(6-(2-(3-methylbenzylidene)hydrazinyl)-2-morpholino-9H-purin-9-yl)-1-(m-tolyl)ethan-1-one]	76.69%	≤ 10 nM
Cc1cccc(/C=N/Nc2nc(N3CCOCC3)nc3c2ncn3C2CCN(C(=O)N(C)C)CC2)c1 [Example 90, (E)-N,N-dimethyl-4-(6-(2-(3-methylbenzylidene)hydrazinyl)-2-morpholino-9H-purin-9-yl)piperidine-1-carboxamide]	66.88%	20 to 30 nM
Cc1cccc(/C=N/Nc2nc(N3CCOCC3)nc3c2ncn3C2CCN(C(=O)N3CCOCC3)CC2)c1 [Example 88, (E)-(4-(6-(2-(3-methylbenzylidene)hydrazinyl)-2-morpholino-9H-purin-9-yl)piperidin-1-yl)(morpholino)methanone]	64.66%	20 to 30 nM
Cc1cccc(/C=N/Nc2nc(N3CCOCC3)nc3c2ncn3CC(=O)c2ccncc2)c1 [Example 32, (E)-2-(6-(2-(3-methylbenzylidene)hydrazinyl)-2-morpholino-9H-purin-9-yl)-1-(pyridin-4-yl)ethan-1-one]	59.60%	20 to 30 nM
Cc1cccc(/C=N/Nc2nc(N3CCOCC3)nc3c2ncn3CC(=O)c2cccc(Cl)c2)c1 [Example 49, (E)-1-(3-chlorophenyl)-2-(6-(2-(3-methylbenzylidene)hydrazinyl)-2-morpholino-9H-purin-9-yl)ethan-1-one]	78.87%	≤ 10 nM
Cc1cccc(/C=N/Nc2nc(N3CCOCC3)nc3c2ncn3CC(=O)C2CC2)c1 [Example 19, (E)-1-cyclopropyl-2-(6-(2-(3-methylbenzylidene)hydrazinyl)-2-morpholino-9H-purin-9-yl)ethan-1-one]	58.67%	
Cc1cccc(/C=N/Nc2nc(N3CCOCC3)nc3c2ncn3C2CN(C(=O)c3ccccc3)C2)c1 [Example 81, (E)-(3-(6-(2-(3-methylbenzylidene)hydrazinyl)-2-morpholino-9H-purin-9-yl)azetidin-1-yl)(phenyl)methanone]	60.34%	
Cc1cccc(/C=N/Nc2nc(N3CCOCC3)nc3c2ncn3CC(=O)c2ccc(F)cc2)c1 [Example 47, (E)-1-(4-fluorophenyl)-2-(6-(2-(3-methylbenzylidene)hydrazinyl)-2-morpholino-9H-purin-9-yl)ethan-1-one]	60.82%	
Cc1cccc(/C=N/Nc2nc(N3CCOCC3)nc3c2ncn3C2CN(C(=O)c3cccnc3)C2)c1 [Example 82, (E)-3-(6-(2-(3-methylbenzylidene)hydrazinyl)-2-morpholino-9H-purin-9-yl)azetidin-1-yl (pyridin-3-yl)methanone]	60.95%	

Second part, the molecule after the results:

ADP-Glo kinase assay (%, 10 nM) (human GST-PIKFYVE)	IC50 (PIKFYVE)	SMILES
83.22%	≤ 10 nM	Cc1cccc(/C=N/Nc2nc(N3CCOCC3)nc3c2ncn3-c2ccc(Cl)cc2)c1 [Example 100, (E)-4-(9-(4-chlorophenyl)-6-(2-(3-methylbenzylidene)hydrazinyl)-9H-purin-2-yl)morpholine]
82.62%	≤ 10 nM	Cc1cccc(-c2ccn(-c3nc(N4CCOCC4)nc4c3ncn4-c3ccncc3)n2)c1 [Example 107, 4-(9-(pyridin-4-yl)-6-(3-(m-tolyl)-1H-pyrazol-1-yl)-9H-purin-2-yl)morpholine]
87.10%	≤ 10 nM	COc1ccc(-n2cnc3c(N/N=C/c4cccc(C)c4)nc(N4CCOCC4)nc32)cn1 [Example 113, (E)-4-(9-(6-methoxypyridin-3-yl)-6-(2-(3-methylbenzylidene)hydrazinyl)-9H-purin-2-yl)morpholine]
68.18%	10 to 20 nM	Cc1cccc(/C=N/Nc2nc(N3CCOCC3)nc3c2ncn3-c2ccc(C(F)(F)F)cc2)c1 [Example 104, (E)-4-(6-(2-(3-methylbenzylidene)hydrazinyl)-9-(4-(trifluoromethyl)phenyl)-9H-purin-2-yl)morpholine]
68.30%	10 to 20 nM	COc1ccc(-c2cccc3c(N/N=C/c4cccc(C)c4)nc(N4CCOCC4)nc23)cc1 [Example 213, (E)-4-(8-(4-methoxyphenyl)-4-(2-(3-methylbenzylidene)hydrazinyl)quinazolin-2-yl)morpholine]
87.75%	≤ 10 nM	Cc1cccc(/C=N/Nc2nc(N3CCOCC3)nc3c2ncn3-c2ccc(Cl)cn2)c1 [Example 116, (E)-4-(9-(5-chloropyridin-2-yl)-6-(2-(3-methylbenzylidene)hydrazinyl)-9H-purin-2-yl)morpholine]
69.14%		Cc1cccc(/C=N/Nc2nc(N3CCOCC3)nc3c2ncn3-c2cccc(C(F)(F)F)c2)c1 [Example 130, (E)-4-(6-(2-(3-methylbenzylidene)hydrazinyl)-9-(3-(trifluoromethyl)phenyl)-9H-purin-2-yl)morpholine]
68.43%		Cc1cccc(/C=N/Nc2nc(N3CCOCC3)nc3c2ncn3-c2ncccc2C)c1 [Example 142, (E)-4-(6-(2-(3-methylbenzylidene)hydrazinyl)-9-(3-methylpyridin-2-yl)-9H-purin-2-yl)morpholine]
53.92%		Cc1ccc(Nc2nc(N3CCOCC3)nc3c2ncn3/N=C/c2cccc(C)c2)cc1 [Example 181, (E)-9-((3-methylbenzylidene)amino)-2-morpholino-N-(p-tolyl)-9H-purin-6-amine]
91.62%		Cc1cccc(/C=N/Nc2nc(N3C[C@H]4C[C@@H]3CO4)nc3c2ncn3-c2cccnc2)c1 [Example 98, (1R,4R)-5-(6-(2-(3-methylbenzylidene)hydrazinyl)-9-(pyridin-3-yl)-9H-purin-2-yl)-oxa-5-azabicyclo[2.2.1]heptane]
86.73%		Clc1cccc(/C=N/n2cnc3c(Nc4ccncc4)nc(N4CCOCC4)nc32)c1 [Example 171, (E)-9-((3-chlorobenzylidene)amino)-2-morpholino-N-(pyridin-4-yl)-9H-purin-6-amine]
52.43%		Cc1cccc(/C=N/n2cnc3c(Nc4ccc(Cl)cc4)nc(N4CCOCC4)nc32)c1 [Example 186, (E)-N-(4-chlorophenyl)-9-((3-methylbenzylidene)amino)-2-morpholino-9H-purin-6-amine]
61.25%		Cc1cccc(/C=N/n2cnc3c(Nc4cncc(C)c4)nc(N4CCOCC4)nc32)c1 [Example 192, (E)-9-((3-methylbenzylidene)amino)-N-(5-methylpyridin-3-yl)-2-morpholino-9H-purin-6-amine]

From US20250388582A1, “NOVEL BICYCLIC HETEROARYL COMPOUND AND USE THEREOF” (ILDONG PHARMACEUTICAL CO., LTD., priority 2022, published 2025)
